Laboratory results reported in the supplement of paper PMC10307832.

Experiments:
Test in all cases: relative viability (nuclei count vs DMSO), 5 days (fraction); higher = more cells survive
Nelarabine = compound: COc1nc(N)nc2c1ncn2[C@@H]1O[C@H](CO)[C@@H](O)[C@@H]1O [Nelarabine]
Procedure, shortened: (§1)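 In 1536-well plates, lung cancer cell lines rested overnight at 37 °C before five library-drug doses (not always all listed), √10 apart, were pinned onto vehicle-anchored plates. Nuclei were counted with MetaXpress from 4× Hoechst images taken after 5 days without medium change. Viability compares treated-well with vehicle-well nuclei as a median over plates, and plates needed control CV below 25% plus at least one doubling to pass.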

Adavosertib = compound: C=CCn1c(=O)c2cnc(Nc3ccc(N4CCN(C)CC4)cc3)nc2n1-c1cccc(C(C)(C)O)n1 [Adavosertib]
Procedure, shortened: as §1

Adavosertib + Foretinib = compound: C=CCn1c(=O)c2cnc(Nc3ccc(N4CCN(C)CC4)cc3)nc2n1-c1cccc(C(C)(C)O)n1 [Adavosertib] + COc1cc2c(Oc3ccc(NC(=O)C4(C(=O)Nc5ccc(F)cc5)CC4)cc3F)ccnc2cc1OCCCN1CCOCC1 [Foretinib] (partner 0.25 µM)
Procedure, shortened: (§2)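 Relative viability is defined as nuclei in treated wells over nuclei in vehicle wells. Duplicate plates were run and medians reported. Lung cancer cell lines in 1536-well plates were dosed by pin tool one day after seeding, with one drug or with a fixed anchor-drug dose plus five library-drug doses (not always all listed) in √10 steps, and nuclei were counted after 5 days.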

Adavosertib + Navitoclax = compound: C=CCn1c(=O)c2cnc(Nc3ccc(N4CCN(C)CC4)cc3)nc2n1-c1cccc(C(C)(C)O)n1 [Adavosertib] + CC1(C)CCC(c2ccc(Cl)cc2)=C(CN2CCN(c3ccc(C(=O)NS(=O)(=O)c4ccc(N[C@H](CCN5CCOCC5)CSc5ccccc5)c(S(=O)(=O)C(F)(F)F)c4)cc3)CC2)C1 [Navitoclax] (partner 0.5 µM)
Procedure, shortened: as §2

Cell Line	relative viability (Nelarabine; 0.01 µM)	relative viability (Nelarabine; 0.03162 µM)	relative viability (Nelarabine; 0.1 µM)	relative viability (Nelarabine; 0.3162 µM)	relative viability (Nelarabine; 1 µM)	relative viability (Adavosertib; 0.01 µM)	relative viability (Adavosertib; 0.03162 µM)	relative viability (Adavosertib; 0.1 µM)	relative viability (Adavosertib; 0.3162 µM)	relative viability (Adavosertib + Foretinib; first compound 0.01 µM)	relative viability (Adavosertib + Foretinib; first compound 0.03162 µM)	relative viability (Adavosertib + Foretinib; first compound 0.1 µM)	relative viability (Adavosertib + Foretinib; first compound 0.3162 µM)	relative viability (Adavosertib + Navitoclax; first compound 0.01 µM)	relative viability (Adavosertib + Navitoclax; first compound 0.03162 µM)	relative viability (Adavosertib + Navitoclax; first compound 0.1 µM)	relative viability (Adavosertib + Navitoclax; first compound 0.3162 µM)
NCI-H2126	1.08	0.952	0.961	1.03	0.988	1.01	1.04	0.969	1.07	1.27	1.22	1.15	1.16	0.882	0.871	0.871	0.894
HOP-62	1.02	1.02	1.06	1.01	1.01	1.03	1.1	1.08	1.18	1.09	1.23	1.15	1.34	1.12	1.16	1.4	1.35
NCI-H647	1.29	0.916	1.07	1.14	0.997	1.03	1.04	0.918	0.669	1.15	1.33	1.04	1.12	1.15	1.17	1.12	0.985
NCI-H2170	1.16	0.912	0.956	1.07	1	1.03	0.959	0.888	0.819	1.02	0.603	0.923	1.07	0.605	0.57	0.482	0.313
NCI-H1793	1.09	0.775	1.1	1.09	1	0.787	0.835	0.885	1.09	0.633	0.599	0.644	0.508	0.338	0.405	0.422	0.425
NCI-H2023	1.48	1.05	0.97	1.02	0.851	0.892	0.87	0.752	0.451	0.85	0.933	0.916	0.568	1.03	0.959	0.912	0.6
SW 1573	1.13	1.04	0.995	1.05	0.979	0.99	1.03	1.14	0.965	0.953	0.914	1.13	1.2	1.07	0.988	1.29	0.926
NCI-H727	1.22	0.891	0.856	0.97	0.896	0.961	0.898	1.03	0.936	0.689	1.07	0.917	0.831	0.468	0.566	0.678	0.372
NCI-H441	1.31	1.11	0.987	1.14	1.09	1.16	1.01	1.19	1.02	1.04	0.964	1.09	0.916	0.645	0.741	0.64	0.401
